Assay results: ChEMBL document CHEMBL1125844, “Novel non-nucleoside inhibitors of HIV-1 reverse transcriptase. 1. Tricyclic pyridobenzo- and dipyridodiazepinones” (J Med Chem, 1991)

What was measured:
[1] = target: Human immunodeficiency virus type 1 reverse transcriptase (Human immunodeficiency virus 1) (UniProt Q72547); test: In vitro inhibitory activity against human immunodeficiency virus type 1 (HIV-1) reverse transcriptase (RT) at a concentration of 10 ug/mL.
[2] = target: Human immunodeficiency virus type 1 reverse transcriptase (Human immunodeficiency virus 1, UniProt Q72547); test: In vitro inhibitory activity against human immunodeficiency virus type 1 (HIV-1) reverse transcriptase (RT)

SMILES | inhibition [1] | IC50 [2]
CCN1c2ncccc2NC(=O)c2cccnc21 | 99% | 440 nM
CN1c2ccccc2NC(=O)c2cccnc21 | 75% | > 1000 nM
CCN1c2ncccc2C(=O)N(C)c2cc(C)cnc21 | 100% | 760 nM
CCN1c2ncccc2C(=O)N(C)c2cc([N+](=O)[O-])cnc21 | 64% | > 1000 nM
CCN1c2ncccc2C(=O)Nc2c(OC)ccnc21 | 96% | > 1000 nM
CN1C(=O)c2cccnc2N(CCF)c2ncccc21 | 96% | 2900 nM
O=C1Nc2c(CO)ccnc2N(C2CC2)c2ncccc21 | 94% | 3000 nM
O=C1c2cccnc2Nc2ccccc2N1CCO | 46% | > 1000 nM
Cc1cccc2c1NC(=O)c1cccnc1N2 | 77% | > 1000 nM
CCN1c2ncccc2C(=O)Nc2c(C)ccnc21 | 100% | 35 nM
C#CN1c2ccccc2N(C)C(=O)c2cccnc21 | 97% | 650 nM
CCN1c2cccc(C)c2NC(=O)c2cccnc21 | 100% | 38 nM
CC(C)N1c2ncccc2NC(=O)c2cccnc21 | 99% | 590 nM
CCN1c2cc(N=[N+]=[N-])ccc2N(C)C(=O)c2cccnc21 | 100% | 140 nM
O=C1Nc2cccnc2N(C2CCC2)c2ncccc21 | 99% | 430 nM
CN1C(=O)c2cccnc2N(Cc2ccccc2)c2ccccc21 | 93% | 9000 nM
CCN1c2ccc(OC)cc2N(C)C(=O)c2cccnc21 | 95% | 2100 nM
CC(=O)N1c2ccccc2N(C)C(=O)c2cccnc21 | 72% | > 1000 nM
CCN1c2ccccc2C(=O)N(C)c2ccccc21 | 80% | > 1000 nM
CCCN1c2ncccc2C(=O)N(C)c2cccnc21 | 100% | 450 nM
CCN1c2ccccc2N(CF)C(=O)c2cccnc21 | 85% | > 1000 nM
COCCN1C(=O)c2cccnc2Nc2ccccc21 | 36% | > 1000 nM
CCCN1c2ccccc2N(C)C(=O)c2cccnc21 | 99% | 230 nM
Cc1cc(C)c2c(n1)Nc1ccccc1C(=O)N2 | 51% | > 1000 nM
C=CCN1C(=O)c2cccnc2N(C(C)=O)c2ccccc21 | 83% | > 1000 nM

SMILES | inhibition [1] | IC50 [2]
CCN1C(=O)c2cccc(C)c2N(CC)c2ncccc21 | 99% | 650 nM
CCN1c2ccc(Cl)cc2N(C)C(=O)c2cccnc21 | 99% | 170 nM
CCN1c2ncc(Cl)cc2C(=O)N(C)c2cccnc21 | 87% | 3500 nM
O=C1Nc2ccccc2Nc2ncccc21 | 22% | > 1000 nM
C#CCN1c2ncccc2C(=O)N(C)c2cccnc21 | 94% | > 1000 nM
Cc1ccnc2c1NC(=O)c1cccnc1N2C1CC1 | 100% | –
CN1C(=O)c2cccnc2N(CCF)c2ccccc21 | 97% | 1000 nM
CCN1C(=O)c2cccnc2Nc2ccccc21 | 87% | > 1000 nM
CCN1c2ccccc2N(C)C(=O)c2cccnc21 | 100% | 350 nM
CCN1C(=O)c2cccnc2N(C)c2ccccc21 | 84% | > 1000 nM
CN1C(=O)c2cccnc2N(CCO)c2ccccc21 | 58% | > 1000 nM
CN1C(=O)c2cccnc2N(CC(=O)O)c2ccccc21 | 60% | > 1000 nM
CCN1c2cc(Cl)c(Cl)cc2N(C)C(=O)c2cccnc21 | 100% | 62 nM
CCN1c2ccc([N+](=O)[O-])cc2N(C)C(=O)c2cc(Br)cnc21 | 64% | > 1000 nM
CCN1c2nc(C)ccc2C(=O)N(C)c2cccnc21 | 65% | > 1000 nM
CCN1c2ncccc2C(=O)Nc2c(O)ccnc21 | 94% | > 1000 nM
CC(=O)N1c2ncccc2C(=O)N(C)c2cccnc21 | 73% | 15300 nM
CCN1c2cc(C)c(C)cc2N(C)C(=O)c2cccnc21 | 100% | 40 nM
O=C1Nc2cccnc2Nc2ccccc21 | 23% | > 1000 nM
CN(C)CCN1C(=O)c2cccnc2N(C2CC2)c2ncccc21 | 34% | > 1000 nM
CCCCN1c2ccccc2N(C)C(=O)c2cccnc21 | 81% | 1000 nM
CCN1c2ccc(C(=O)O)cc2N(C)C(=O)c2cccnc21 | 18% | > 1000 nM
CCN1c2ncccc2C(=O)N(C)c2cc(Cl)c(N)nc21 | 98% | 850 nM
C=CCN1C(=O)c2cccnc2Nc2ccc(Cl)cc21 | 79% | > 1000 nM
CSCN1c2ncccc2C(=O)N(C)c2cccnc21 | 99% | 850 nM

SMILES | inhibition [1] | IC50 [2]
CCN1c2ccccc2N(C)C(=O)c2cc(Cl)cnc21 | 91% | 7600 nM
CCN1c2cccc(C)c2N(Cc2ccccc2)C(=O)c2cccnc21 | 40% | > 1000 nM
CN1C(=O)c2cccnc2N(C2CCCCC2)c2ncccc21 | 73% | > 1000 nM
CCOC(=O)N1c2ccccc2N(C)C(=O)c2cccnc21 | 13% | > 1000 nM
CN1C(=O)c2cccnc2N(CC(=O)OC(C)(C)C)c2ccccc21 | 87% | > 1000 nM
CCN1c2ccccc2NC(=O)c2cccnc21 | 99% | 380 nM
O=C1Nc2cccnc2N(c2ccccc2)c2ncccc21 | 71% | > 1000 nM
CCN1C(=O)c2cccnc2N(CC)c2ccccc21 | 99% | 380 nM
CC[C@@H](C)N1c2ncccc2NC(=O)c2cccnc21 | 85% | > 1000 nM
Cc1cc2c(cc1C)N(CCN(C)C)c1ncccc1C(=O)N2C | 0% | > 1000 nM
CCN1c2ccccc2C(=O)N(C)c2cccnc21 | 99% | 500 nM
CN1C(=O)c2ccccc2N(C)c2ncccc21 | 74% | > 1000 nM
CC(C)(C)OC(=O)CN1C(=O)c2cccnc2Nc2ccccc21 | 39% | > 1000 nM
CN1C(=O)c2cccnc2N(C)c2ccccc21 | 85% | > 1000 nM
CCN1c2ncccc2C(=O)N(C)c2cccnc21 | 100% | 125 nM
CCN1c2cc(C(=O)c3ccccc3)ccc2N(C)C(=O)c2cccnc21 | 73% | > 1000 nM
CCN1c2ccccc2N(C)C(=O)c2ccc(F)nc21 | 84% | 2900 nM
C=CCN1C(=O)c2cccnc2N(C(=O)CC)c2ccccc21 | 72% | > 1000 nM
CC(C)N1c2ccccc2N(C)C(=O)c2cccnc21 | 98% | 200 nM
CN1C(=O)c2cccnc2Nc2ccccc21 | 43% | > 1000 nM
CCN1c2ccc(CNC(=O)C(C)(C)C)cc2N(C)C(=O)c2cccnc21 | 15% | > 1000 nM
CC[C@H](C)N1c2ncccc2NC(=O)c2cccnc21 | 88% | > 1000 nM
CCN1C(=O)c2ccccc2N(CC)c2ncccc21 | 96% | 690 nM
